Reference: ChEMBL document CHEMBL5329202, “New aryl-/heteroarylpiperazine derivatives of 1,7-dimethyl-8,9-diphenyl-4-azatricyclo[5.2.1.02,6]dec-8-ene-3,5,10-trione: Synthesis and preliminary studies of biological activities” (Bioorg Med Chem, 2023)
pEC50, pIC50: −log10 of the molar value. The source made the active and inactive calls. The rule behind the calls is not given here.

Columns and labels:
K562 [1] = test: Cytotoxicity against human K562 cells assessed as cell growth inhibition measured after 72 hrs by MTT assay; format: functional, cell-based; details: K562, 72 h
SW480 = test: Cytotoxicity against human SW480 cells assessed as cell growth inhibition measured after 72 hrs by MTT assay; format: functional, cell-based; details: SW480, 72 h
SW-620 = test: Cytotoxicity against human SW620 cells assessed as cell growth inhibition measured after 72 hrs by MTT assay; format: functional, cell-based; details: SW-620, 72 h
A549 = test: Cytotoxicity against human A549 cells assessed as cell growth inhibition measured after 72 hrs by MTT assay; format: functional, cell-based; details: A549, 72 h
MDA-MB-231 = test: Cytotoxicity against human MDA-MB-231 cells assessed as cell growth inhibition measured after 72 hrs by MTT assay; format: functional, cell-based; details: MDA-MB-231, 72 h
[2] = Cytotoxicity against human HMEC-1 cells assessed as cell growth inhibition measured after 72 hrs by MTT assay; format: toxicity, cell-based
[3] = Selectivity index, ratio of IC50 for cytotoxicity against human HMEC-1 cells to IC50 for cytotoxicity against human PC-3 cells; format: toxicity, cell-based; details: HMEC-1 cells and PC-3 cells, read-out: Ratio IC50
[4] = Selectivity index, ratio of IC50 for cytotoxicity against human HMEC-1 cells to IC50 for cytotoxicity against human K562 cells; format: toxicity, cell-based; details: HMEC-1 cells and K562 cells, read-out: Ratio IC50
[5] = Selectivity index, ratio of IC50 for cytotoxicity against human HMEC-1 cells to IC50 for cytotoxicity against human HCT-116 cells; format: toxicity, cell-based; details: HMEC-1 cells and HCT-116 cells, read-out: Ratio IC50
[6] = Selectivity index, ratio of IC50 for cytotoxicity against human HMEC-1 cells to IC50 for cytotoxicity against human SW480 cells
[7] = Selectivity index, ratio of IC50 for cytotoxicity against human HMEC-1 cells to IC50 for cytotoxicity against human HepG2 cells; format: toxicity, cell-based; details: HMEC-1 cells and HepG2 cells, read-out: Ratio IC50
[8] = Selectivity index, ratio of IC50 for cytotoxicity against human HMEC-1 cells to IC50 for cytotoxicity against human A549 cells; format: toxicity, cell-based; details: HMEC-1 cells and A549 cells, read-out: Ratio IC50
[9] = Selectivity index, ratio of IC50 for cytotoxicity against human HMEC-1 cells to IC50 for cytotoxicity against human MDA-MB-231 cells; format: toxicity, cell-based; details: HMEC-1 cells and MDA-MB-231 cells, read-out: Ratio IC50
K562 [10] = test: Antiproliferative activity against human K562 cells assessed as reduction in cell number at IC50 measured after 72 hrs by trypan blue dye based assay relative to control; format: functional; set-up: scale not given: the % may be the effect or the level left
HCT-116 [11] = test: Antiproliferative activity against human HCT-116 cells assessed as reduction in cell number at IC50 measured after 72 hrs by trypan blue dye based assay relative to control; format: functional; set-up: scale not given: the % may be the effect or the level left
HCT-116 [12] = test: Antiproliferative activity against human HCT-116 cells assessed as reduction in cell viability at IC50 measured after 72 hrs by trypan blue dye based assay relative to control; format: functional
K562 [13] = test: Induction of apoptosis in human K562 cells assessed as viable cells at IC50 incubated for 72 hrs by Annexin V-FITC/PI staining based flow cytometric analysis (reference value: 89 %); format: functional
K562 [14] = test: Induction of apoptosis in human K562 cells assessed as early apoptotic cells at IC50 incubated for 72 hrs by Annexin V-FITC/PI staining based flow cytometric analysis (reference value: 1.3 %); format: functional
K562 [15] = test: Induction of apoptosis in human K562 cells assessed as late apoptotic cells at IC50 incubated for 72 hrs by Annexin V-FITC/PI staining based flow cytometric analysis (reference value: […]); format: functional
K562 [16] = test: Induction of apoptosis in human K562 cells assessed as necrotic cells at IC50 incubated for 72 hrs by Annexin V-FITC/PI staining based flow cytometric analysis (reference value: 7.1 %); format: functional
HCT-116 [17] = test: Induction of apoptosis in human HCT-116 cells assessed as early apoptotic cells at IC50 incubated for 72 hrs by Annexin V-FITC/PI staining based flow cytometric analysis (reference value: 7.8 %); format: functional
HCT-116 [18] = test: Induction of apoptosis in human HCT-116 cells assessed as necrotic cells at IC50 incubated for 72 hrs by Annexin V-FITC/PI staining based flow cytometric analysis (reference value: 0.1 %); format: functional
HMEC-1 [19] = test: Induction of apoptosis in human HMEC-1 cells assessed as viable cells at IC50 incubated for 72 hrs by Annexin V-FITC/PI staining based flow cytometric analysis (reference value: 90.6 %); format: functional
HMEC-1 [20] = test: Induction of apoptosis in human HMEC-1 cells assessed as early apoptotic cells at IC50 incubated for 72 hrs by Annexin V-FITC/PI staining based flow cytometric analysis (reference value: 2.4 %); format: functional
HMEC-1 [21] = test: Induction of apoptosis in human HMEC-1 cells assessed as necrotic cells at IC50 incubated for 72 hrs by Annexin V-FITC/PI staining based flow cytometric analysis (reference value: 2.4 %); format: functional
K562 [22] = test: Induction of apoptosis in human K562 cells assessed as increase in caspase-3/7 activity at IC50 incubated for 24 hrs by Glo assay relative to control; format: functional
[23] = molecular target: T1, 5-hydroxytryptamine receptor 1A (Rattus norvegicus, UniProt P19327); test: Agonist activity at Sprague-Dawley rat hippocampal membrane 5-HT1A receptor assessed as stimulation of [35S]GTPgammaS binding measured after 90 mins by scintillation counter analysis; format: functional, cell membranes, Hippocampus
T1 sequence (P19327 whole entry): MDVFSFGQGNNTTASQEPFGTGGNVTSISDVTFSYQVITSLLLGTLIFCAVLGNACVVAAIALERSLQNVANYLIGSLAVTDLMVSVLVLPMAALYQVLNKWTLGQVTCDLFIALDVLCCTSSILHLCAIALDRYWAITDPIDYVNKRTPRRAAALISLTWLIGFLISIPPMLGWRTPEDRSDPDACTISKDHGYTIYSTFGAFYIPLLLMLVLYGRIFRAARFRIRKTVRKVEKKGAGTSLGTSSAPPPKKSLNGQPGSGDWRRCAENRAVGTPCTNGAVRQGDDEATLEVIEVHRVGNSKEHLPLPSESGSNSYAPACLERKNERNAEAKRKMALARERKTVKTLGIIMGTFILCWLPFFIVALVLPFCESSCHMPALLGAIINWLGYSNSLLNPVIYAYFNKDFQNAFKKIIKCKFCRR

[24] = molecular target: T2, 5-hydroxytryptamine receptor 1A (Rattus norvegicus) (UniProt P19327); test: Agonist activity at Sprague-Dawley rat hippocampal membrane 5-HT1A receptor assessed as stimulation of [35S]GTPgammaS binding by measuring maximal efficacy measured after 90 mins by scintillation counter analysis relative to control; format: functional, cell membranes; details: Hippocampus, filed as agonist
T2 sequence (whole entry): T1 sequence (P19327 whole entry)

D(2) dopamine receptor = D(2) dopamine receptor (Rattus norvegicus, UniProt P61169); test: Antagonist activity at Sprague-Dawley rat striatum membrane D2 receptor assessed as inhibition of dopamine stimulated [35S]GTPgammaS binding measured after 90 mins by scintillation counter analysis; format: functional, cell membranes
Rattus norvegicus = species: Rattus norvegicus; test: Displacement of [3H]-QNB from Sprague-Dawley rat Muscarinic acetylcholine receptor assessed as inhibition constant measured after 45 mins by competitive binding assay
HMEC-1 [25] = test: Antiproliferative activity against human HMEC-1 cells assessed as reduction in cell viability at IC50 measured after 72 hrs by trypan blue dye based assay relative to control; format: toxicity; details: hmec-1, 72 h

D(2) dopamine receptor, sequence (P61169 whole entry): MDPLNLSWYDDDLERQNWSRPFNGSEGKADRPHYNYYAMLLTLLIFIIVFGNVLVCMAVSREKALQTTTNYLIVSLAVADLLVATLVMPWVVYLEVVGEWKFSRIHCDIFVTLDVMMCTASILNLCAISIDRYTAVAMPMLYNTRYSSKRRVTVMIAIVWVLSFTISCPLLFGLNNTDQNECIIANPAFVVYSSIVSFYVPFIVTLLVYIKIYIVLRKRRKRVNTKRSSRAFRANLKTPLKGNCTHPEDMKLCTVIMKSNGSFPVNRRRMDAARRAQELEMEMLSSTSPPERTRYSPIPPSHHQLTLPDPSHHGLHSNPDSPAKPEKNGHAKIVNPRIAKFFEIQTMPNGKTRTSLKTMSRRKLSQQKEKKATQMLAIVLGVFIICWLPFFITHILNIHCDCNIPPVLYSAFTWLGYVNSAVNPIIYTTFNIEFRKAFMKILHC

SMILES	pIC50 (K562 [1])	pIC50 (SW480)	pIC50 (SW-620)	pIC50 (A549)	pIC50 (MDA-MB-231)	IC50 at 72 h [2]	selectivity ratio [3]	selectivity ratio [4]	selectivity ratio [5]	Ratio IC50 [6]	selectivity ratio [7]	selectivity ratio [8]	selectivity ratio [9]	Activity (K562 [10])	Activity (HCT-116 [11])	Activity (HCT-116 [12])	Activity (K562 [13])	Activity (K562 [14])	Activity (K562 [15])	Activity (K562 [16])	also measured
CC12C(=O)C(C)(C(c3ccccc3)=C1c1ccccc1)C1C(=O)N(CCCCN3CCN(c4ccccc4Cl)CC3)C(=O)C12 (stereo unspecified)	5.40	5.28	5.21	4.60	4.61	20.6 µM	2.63	5.15	5.77	3.9	1.6	0.82	0.85	61%	29%	30%	67%	5.2%	19.4%	8.4%	Activity (HCT-116 [17]): 36.4%; Activity (HCT-116 [18]): 0.6%; Activity (HMEC-1 [19]): 86.7%; Activity (HMEC-1 [20]): 3.5%; Activity (HMEC-1 [21]): 5.1%; Activity (K562 [22]): 22%; pEC50 [23]: 7.00; Emax [24]: 145%; pIC50 (D(2) dopamine receptor): 5.08; Activity (Rattus norvegicus): inactive; Activity (HMEC-1 [25]): Non-Toxic
CC12C(=O)C(C)(C(c3ccccc3)=C1c1ccccc1)C1C(=O)N(CCCCN3CCN(c4ccccc4F)CC3)C(=O)C12 (stereo unspecified)	5.25	5.11	4.65	4.51	4.25	17.7 µM	1.92	3.13	3.95	2.28	0.66	0.58	0.31	82%	35%	35%	56.9%	5.2%	27.3%	10.6%	Activity (HCT-116 [17]): 23%; Activity (HCT-116 [18]): 0.2%; Activity (HMEC-1 [19]): 85.8%; Activity (HMEC-1 [20]): 1.9%; Activity (HMEC-1 [21]): 5%; Activity (K562 [22]): 74%; pEC50 [23]: 5.77; Emax [24]: 152%; pIC50 (D(2) dopamine receptor): 4.74; Activity (Rattus norvegicus): inactive; Activity (HMEC-1 [25]): Non-Toxic
CC12C(=O)C(C)(C(c3ccccc3)=C1c1ccccc1)C1C(=O)N(CCCCN3CCN(c4cccc(Cl)c4)CC3)C(=O)C12 (stereo unspecified)	5.36	5.08	4.80	4.59	4.39	21.9 µM	2.55	5.01	3.54	2.64	1.55	0.86	0.54	82%	26%	16%	59.5%	5.2%	25.4%	9.9%	Activity (HCT-116 [17]): 15.7%; Activity (HCT-116 [18]): 0.3%; Activity (HMEC-1 [19]): 86.8%; Activity (HMEC-1 [20]): 3.5%; Activity (HMEC-1 [21]): 2%; Activity (K562 [22]): 74%; pEC50 [23]: 6.22; Emax [24]: 162%; pIC50 (D(2) dopamine receptor): 4.61; Activity (Rattus norvegicus): inactive; Activity (HMEC-1 [25]): Non-Toxic
CC12C(=O)C(C)(C(c3ccccc3)=C1c1ccccc1)C1C(=O)N(CCCCN3CCN(c4ccccn4)CC3)C(=O)C12 (stereo unspecified)	5.05	4.92	4.80	4.79	4.82	36.6 µM	1.73	4.13	4.37	3.02	2.51	2.28	2.41	79%	28%	17%	36.1%	6.3%	43.8%	13.7%	Activity (HCT-116 [17]): 12.1%; Activity (HCT-116 [18]): 0.4%; Activity (HMEC-1 [19]): 95.5%; Activity (HMEC-1 [20]): 1.4%; Activity (HMEC-1 [21]): 1.6%; Activity (K562 [22]): 74%; pEC50 [23]: 6.15; Emax [24]: 168%; pIC50 (D(2) dopamine receptor): 4.30; Activity (Rattus norvegicus): inactive; Activity (HMEC-1 [25]): Non-Toxic
COc1ccccc1N1CCN(CCCCN2C(=O)C3C(C2=O)C2(C)C(=O)C3(C)C(c3ccccc3)=C2c2ccccc2)CC1 (stereo unspecified)	5.17	5.13	5.32	4.79	4.53	30.2 µM	2.07	4.47	3.4	4.08	1.93	1.86	1.03	88%	44%	34%	22.4%	5.9%	51.3%	20.4%	Activity (HCT-116 [17]): 18.4%; Activity (HCT-116 [18]): 0.1%; Activity (HMEC-1 [19]): 94.3%; Activity (HMEC-1 [20]): 2.2%; Activity (HMEC-1 [21]): 1.7%; Activity (K562 [22]): 22%; pEC50 [23]: 8.22; Emax [24]: 122%; pIC50 (D(2) dopamine receptor): 4.94; Activity (Rattus norvegicus): inactive; Activity (HMEC-1 [25]): Non-Toxic
CC12C(=O)C(C)(C(c3ccccc3)=C1c1ccccc1)C1C(=O)N(CCCCN3CCN(c4ncccn4)CC3)C(=O)C12 (stereo unspecified)	5.09	4.80	4.87	4.74	4.73	30.5 µM	1.49	3.78	6.6	1.93	1.83	1.69	1.64	64%	49%	36%	77.3%	4%	11.7%	7%	Activity (HCT-116 [17]): 58.2%; Activity (HCT-116 [18]): 0.3%; Activity (HMEC-1 [19]): 91.7%; Activity (HMEC-1 [20]): 4.6%; Activity (HMEC-1 [21]): 1.3%; Activity (K562 [22]): 22%; pEC50 [23]: 5.82; Emax [24]: 134%; pIC50 (D(2) dopamine receptor): 4.65; Activity (Rattus norvegicus): inactive; Activity (HMEC-1 [25]): Non-Toxic
